Test results reported in publication PMC5424110, “Preclinical anti-arthritic study and pharmacokinetic properties of a potent histone deacetylase inhibitor MPT0G009” (Cell Death & Disease, 2014).

Columns and labels:
recombinant HDAC1 = target: T1, recombinant HDAC1 (Homo sapiens, UniProt Q13547); assay: Fluorogenic assay kit, recombinant HDAC1 enzyme activity; type: biochemical; conditions: mean±S.E.M., three replicate experiments; read-out: IC50 (nM) of HDAC isoforms enzyme, HDAC1
T1 construct: purchased BPS Bioscience Corp. (San Diego, CA, USA)
Source text: (§1) Using kits that contained different recombinant HDAC isoforms, we evaluated the ability of MPT0G009 to inhibit HDAC-mediated deacetylation of lysine residues on the substrates that were provided. […] Fluorogenic HDAC assay kits were used to assess the ability of HDAC inhibitors to inhibit deacetylation of lysine residues on the substrate by recombinant HDAC1, 2, 3, 4, 6 or 8 according to the manufacturer's instructions.

recombinant HDAC6 = target: T2, recombinant HDAC6 (Homo sapiens, UniProt Q9UBN7); assay: Fluorogenic assay kit, recombinant HDAC6 enzyme activity; type: biochemical; conditions: mean±S.E.M., three replicate experiments; read-out: IC50 (nM) of HDAC isoforms enzyme, HDAC6
T2 construct: purchased BPS Bioscience Corp. (San Diego, CA, USA)
Source text: as §1

[1] = system: HDACs in human RA fibroblast-like synoviocytes; assay: HDAC activity assay of cell lysates (RA-FLS); type: cell-based
Source text: We have synthesized 1-arylsulfonyl-5-(N-hydroxyacrylamide) indolines derivative HDAC inhibitors. […] In this study, we evaluated the anti-arthritic effects of MPT0G009 in vitro and in an in vivo model and determined the pharmacokinetics and its maximum tolerated dose (MTD).
Colorimetric HDAC activity kits were used to assay HDAC activity in cell lysates according to the manufacturer's instructions.

[2] = system: RA fibroblast-like synoviocyte (RA-FLS); assay: Inflammatory mediator production by stimulated RA-FLS; type: cell-based, human; conditions: MPT0G009 0.1, 1 or 10 μM, SAHA 0.3, 3 or 30 μM
Protocol: (a) Structure of MPT0G009.
These supernatants were then assayed for prostaglandin E2 (PGE2), NO and IL-6.

T2 sequence (Q9UBN7 whole entry, canonical isoform): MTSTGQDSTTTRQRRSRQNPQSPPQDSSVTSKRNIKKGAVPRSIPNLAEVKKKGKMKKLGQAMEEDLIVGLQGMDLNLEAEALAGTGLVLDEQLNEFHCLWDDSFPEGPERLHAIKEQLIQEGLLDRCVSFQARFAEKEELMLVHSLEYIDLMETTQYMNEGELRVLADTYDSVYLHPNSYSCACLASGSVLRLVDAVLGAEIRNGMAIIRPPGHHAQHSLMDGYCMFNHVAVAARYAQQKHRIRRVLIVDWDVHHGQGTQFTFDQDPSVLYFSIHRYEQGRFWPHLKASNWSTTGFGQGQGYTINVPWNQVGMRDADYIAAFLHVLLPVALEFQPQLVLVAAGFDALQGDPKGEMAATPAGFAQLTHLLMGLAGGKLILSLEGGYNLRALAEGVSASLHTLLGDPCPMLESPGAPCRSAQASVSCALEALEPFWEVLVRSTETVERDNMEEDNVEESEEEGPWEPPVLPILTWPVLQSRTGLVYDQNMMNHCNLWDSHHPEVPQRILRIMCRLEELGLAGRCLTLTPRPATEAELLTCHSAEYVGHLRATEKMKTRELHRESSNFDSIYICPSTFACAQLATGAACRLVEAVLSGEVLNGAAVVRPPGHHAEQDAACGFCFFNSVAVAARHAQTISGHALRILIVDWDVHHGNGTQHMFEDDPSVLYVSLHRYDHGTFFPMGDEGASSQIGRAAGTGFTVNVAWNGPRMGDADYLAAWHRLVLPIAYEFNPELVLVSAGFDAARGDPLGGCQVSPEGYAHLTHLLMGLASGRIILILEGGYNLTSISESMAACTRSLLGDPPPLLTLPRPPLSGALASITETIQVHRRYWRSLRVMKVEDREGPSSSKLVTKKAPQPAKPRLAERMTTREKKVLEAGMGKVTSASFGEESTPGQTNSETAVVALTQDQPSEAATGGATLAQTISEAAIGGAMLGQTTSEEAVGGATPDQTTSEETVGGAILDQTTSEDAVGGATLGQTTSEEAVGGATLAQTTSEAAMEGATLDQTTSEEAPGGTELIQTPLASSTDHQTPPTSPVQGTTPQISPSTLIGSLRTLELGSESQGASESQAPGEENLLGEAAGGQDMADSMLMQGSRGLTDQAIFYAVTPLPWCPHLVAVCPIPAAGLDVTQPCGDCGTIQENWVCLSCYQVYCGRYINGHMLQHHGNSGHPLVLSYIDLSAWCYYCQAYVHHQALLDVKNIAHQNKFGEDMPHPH
T1 sequence (Q13547 whole entry, canonical isoform): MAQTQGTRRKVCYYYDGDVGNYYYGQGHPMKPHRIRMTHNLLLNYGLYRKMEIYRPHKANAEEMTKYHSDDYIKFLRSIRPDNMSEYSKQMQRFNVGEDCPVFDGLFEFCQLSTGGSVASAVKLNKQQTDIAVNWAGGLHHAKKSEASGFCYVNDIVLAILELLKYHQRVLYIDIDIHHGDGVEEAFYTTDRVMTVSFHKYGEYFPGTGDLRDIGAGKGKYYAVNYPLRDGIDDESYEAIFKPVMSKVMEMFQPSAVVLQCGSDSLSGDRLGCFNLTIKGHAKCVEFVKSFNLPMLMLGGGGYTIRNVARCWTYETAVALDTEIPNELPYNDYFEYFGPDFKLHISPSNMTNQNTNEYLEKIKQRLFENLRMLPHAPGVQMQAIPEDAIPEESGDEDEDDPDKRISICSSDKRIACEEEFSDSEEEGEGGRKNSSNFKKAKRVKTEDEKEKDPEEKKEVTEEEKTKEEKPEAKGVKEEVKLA

COc1ccc(S(=O)(=O)N2CCc3cc(C=CC(=O)NO)ccc32)cc1 [MPT0G009, 3-[1-(4-methoxybenzenesulfonyl)-2,3-dihydro-1H-indol-5-yl]-N-hydroxyacrylamide]
IC50 (recombinant HDAC1): 4.62 ± 0.81 nM | IC50 (recombinant HDAC6): 8.43 ± 0.72 nM | potency relative to SAHA on HDACs inhibition [1]: > 10 times | IL-6 production ([2]; IL-1β 10 ng/ml 24 h): inhibited | PGE2 production ([2]; LPS 25 ng/ml 24 h): inhibited
